Assay results reported in patent US20110143948A1, “MOLECULAR SIGNATURES AND BIOMARKERS ASSOCIATED WITH MELANOMA AND METHODS OF USE THEREOF” (priority 2008, published 2011).

Tested on: ncRNAs (SEQ ID NO 28-89)
Assay: ncRNA arrays of melanocytes, keratinocytes, normal skin, melanoma cell lines and patient samples
Set-up: species or system human
Details: for ncRNA array expression, patient 2: melanoma patient 2 sample compared to normal skin; for ncRNA array expression, patient 3: melanoma patient 3 sample compared to normal skin; for ncRNA array expression, patient 4: melanoma patient 4 sample compared to normal skin; for ncRNA array expression, patient 5: melanoma patient 5 sample compared to normal skin; for ncRNA array expression, patient 6: melanoma patient 6 sample compared to normal skin; for ncRNA array expression, patient 7: melanoma patient 7 sample compared to normal skin; for ncRNA array expression, patient 8: melanoma patient 8 sample compared to normal skin; for ncRNA array expression, patient 9: melanoma patient 9 sample compared to normal skin; for ncRNA array expression, patient 10: melanoma patient 10 sample compared to normal skin; for ncRNA array expression, patient 19: melanoma patient 19 sample compared to normal skin; for ncRNA array expression, patient 20: melanoma patient 20 sample compared to normal skin; for ncRNA array expression, patient 21: melanoma patient 21 sample compared to normal skin; for ncRNA array expression, patient 22: melanoma patient 22 sample compared to normal skin; for ncRNA array expression, patient 23: melanoma patient 23 sample compared to normal skin; for ncRNA array expression, patient 24: melanoma patient 24 sample compared to normal skin; for ncRNA array expression, patient 25: melanoma patient 25 sample compared to normal skin; for ncRNA array expression, patient 26: melanoma patient 26 sample compared to normal skin; for ncRNA array expression, patient 27: melanoma patient 27 sample compared to normal skin; for ncRNA array expression, patient 28: melanoma patient 28 sample compared to normal skin; for ncRNA array expression, patient 29: melanoma patient 29 sample compared to normal skin; for ncRNA array expression, patient 30: melanoma patient 30 sample compared to normal skin
Experimental: An ncRNA array platform that contains over 10,000 putative (>200 nt) ncRNAs including most of the known ncRNAs in mouse and human was conducted to evaluate ncRNAs within melanoma. Lack of coding potential was estimated by an algorithm that scores various characteristics of protein-coding genes, including open reading frame length, synonymous/non-synonymous base substitution rates and similarity to known proteins. These arrays provide the first generation of tools designed to analyze the dynamic expression of a large subset of ncRNAs in human and mouse and to identify candidate genes for more detailed functional analysis. In addition to the ncRNA content, probes targeting mRNA content from RefSeq are also included, allowing discovery of coordinated expression with associated protein-coding genes. The result of these assays is a list of ncRNA genes (i.e. SEQ ID NO 28-89) and maps of their sequence boundaries. We have profiled total RNA isolated from melanocytes, keratinocytes, normal human skin, melanoma cell lines and melanoma patient samples to identify differentially expressed ncRNAs in cell lines and tissues. ncRNAs expression in all tested samples were compared to either melanocytes or normal skin. We have identified a group of ncRNAs that are specific for (a) melanocytes (b) Keratinocytes (c) Melanoma cell lines (d) Melanoma patients. […] Probe DNA sequences for this array include: AF086032 (SEQ ID NO 107) […] BC071821 (SEQ ID NO 108) […] C AK130193 (SEQ ID NO 109) […] AL109719 (SEQ ID NO 110) […] AF085888 (SEQ ID NO 111) […] T BC033879 (SEQ ID NO 112) […] AA AK024556 (SEQ ID NO 113) […] Probe nomenclature is standard genebank IDs given by NCBI and other organizations.
Keratinocytes specific signatures were subtracted and resultant ncRNAs were validated by qRT-PCR and Northern blots. Results point out the presence of a group of melanoma specific ncRNAs (i.e. SEQ ID NO 28-89).

Row | Substance | ncRNA array expression, patient 2 | ncRNA array expression, patient 3 | ncRNA array expression, patient 4 | ncRNA array expression, patient 5 | ncRNA array expression, patient 6 | ncRNA array expression, patient 7 | ncRNA array expression, patient 8 | ncRNA array expression, patient 9 | ncRNA array expression, patient 10 | ncRNA array expression, patient 19 | ncRNA array expression, patient 20 | ncRNA array expression, patient 21 | ncRNA array expression, patient 22 | ncRNA array expression, patient 23 | ncRNA array expression, patient 24 | ncRNA array expression, patient 25 | ncRNA array expression, patient 26 | ncRNA array expression, patient 27 | ncRNA array expression, patient 28 | ncRNA array expression, patient 29 | also measured
1 | SEQ ID NO 28 (CTTAATGTATCTAAGGTTGGCTTAATCCTGTCTAAAATCAAGGTATTGGACTAGAACAAT; DNA, backbone and methylation of C not given here; listed as Homo sapiens) | 2.064 | 2.037 | 2.709 | 1.822 | −0.1399 | 2.032 | 1.588 | 0.7923 | −0.2665 | 0.5486 | 1.334 | 0.4728 | 1.388 | 2.286 | 0.3368 | 2.417 | 3.091 | 2.371 | 3.316 | 3.278 | ncRNA array expression, patient 30: −1.35
2 | SEQ ID NO 29 (TTAAATACATGTTTCTAATATTTTAGTGTTTTGTATTTAGGTTATTTATTCTTTGTATCT; DNA, backbone and methylation of C not given here; listed as Homo sapiens) | 3.623 | 2.485 | 3.452 | 2.59 | 1.012 | 2.658 | 3.211 | 2.109 | 2.287 | 0.6625 | 2.377 | 2.504 | 1.796 | 1.689 | 2.143 | 3.284 | 3.992 | 2.873 | 2.81 | 4.101 | ncRNA array expression, patient 30: −2.062
3 | SEQ ID NO 30 (ATTCCAAGGCCTATTAAAATTTCTGAGCATTGCCCATTTCTTTTGCTTTATCTGTAGGAC; DNA, backbone and methylation of C not given here; listed as Homo sapiens) | 4.3 | 3.169 | 2.472 | 3.84 | 2.191 | 4.639 | 2.888 | 0.4508 | 3.549 | 0.5363 | 1.367 | 3.468 | 1.187 | 0.3079 | −1.318 | 1.316 | 2.451 | 4.706 | 0.8038 | 4.757 | ncRNA array expression, patient 30: 1.117
4 | SEQ ID NO 31 (TTGCTTTTGTATTTGTAATTTTATGACATTTCGAAGTTTCTGTGTCTTAACTCTTTTTAA; listed as DNA, chemistry not given here; listed as Homo sapiens) | 2.958 | 2.154 | 2.238 | 2.368 | 1.429 | 4.22 | −0.4178 | 2.588 | 3.165 | 2.105 | 2.853 | 4.304 | 2.578 | 2.86 | 1.373 | 2.408 | 3.487 | 2.156 | 2.25 | 2.949 | ncRNA array expression, patient 30: −2.886
5 | SEQ ID NO 32 (ATTCAAATCTTCATGAATGGCATCACTTGCTTTAGACCCATTTTTTTTTTATTGGTCAGA; DNA, backbone and methylation of C not given here; listed as Homo sapiens) | 1.211 | 0.4737 | 2.717 | 1.51 | 0.7439 | 1.568 | 2.606 | 1.062 | 0.7286 | 2.126 | 3.196 | 0.7443 | 0.9022 | 0.8613 | 1.339 | 4.072 | 3.121 | 3.501 | 0.9963 | 1.473 | ncRNA array expression, patient 30: −2.05
6 | SEQ ID NO 33 (TATTGAATGTACACAAGTAATGATGGAGTTTGATTATATGGTTCATTTTCATTTATCCTA; DNA, backbone and methylation of C not given here; listed as Homo sapiens) | 0.6575 | 0.8123 | 3.512 | 0.6998 | 1.768 | 2.379 | 2.278 | 0.3136 | 1.984 | 1.068 | 1.404 | 1.613 | 0.8185 | −0.4072 | 3.016 | 1.628 | 2.999 | 3.593 | 2.24 | 2.111 | ncRNA array expression, patient 30: −0.2823
7 | SEQ ID NO 34 (TTTTCTCTGCTTATTACCCTCCCTGTTTCCTCCTGGGCTGCCAACAACATATTATATTAC; listed as DNA, chemistry not given here; listed as Homo sapiens) | 2.375 | 2.833 | 2.701 | 2.722 | 2.606 | 3.005 | 2.354 | 1.958 | −1.787 | 2.243 | 3.044 | 2.382 | 2.727 | 2.643 | 1.817 | 2.013 | 1.687 | 2.945 | 2.485 | 2.129 | ncRNA array expression, patient 30: −0.1242
